Test results reported in US8148388B2, “2,4 (4,6) pyrimidine derivatives” (Janssen Pharmaceutica, N.V., priority 2004, dated 2012).

Key:
Assay type in all cases: biochemical
Lyn (h) = Lyn (h) (Homo sapiens, UniProt P07948); assay: Lyn human kinase assay (glass-fiber filter); settings: test concentration of 10^−6M; for inhibition at 1 µM: read-out: C10 score (inhibition of Lyn human)
Procedure, shortened: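 Human Lyn (5-10 mU) phosphorylating poly(Glu,Tyr) 4:1 at 0.1 mg/ml with [γ-33P]ATP (concentration as required) in 50 mM Tris pH 7.5, 10 mM Mg acetate, 40 min at room temperature. Stopped with phosphoric acid; substrate-bound radioactivity counted on glass-fibre filter.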

cSRC (h) = cSRC (h) (Homo sapiens, UniProt P12931); assay: cSRC human kinase assay (glass-fiber filter); settings: test concentration of 10^−6M; for inhibition at 1 µM: read-out: C3 score (inhibition of cSRC human)
Procedure, shortened: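 Radiometric assay: kinase and substrate are incubated with [33P]ATP, with the reaction started by MgATP mix. The reaction is spotted on P30 filtermat, washed in 75 mM phosphoric acid and methanol, and the bound 33P is measured by scintillation counting.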

Yes (h) = Yes (h) (Homo sapiens, UniProt P07947); assay: Yes human kinase assay (glass-fiber filter); settings: test concentration of 10^−6M; for inhibition at 1 µM: read-out: C11 score (inhibition of Yes human)
Procedure, shortened: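 Yes (h) (5-10 mU) with 0.1 mg/ml poly(Glu, Tyr) 4:1 in 8 mM MOPS pH 7.0, 0.2 mM EDTA, 10 mM MgAcetate and [γ-^33P-ATP], 40 minutes at room temperature. Stopped with phosphoric acid; substrate-bound ^33P counted on glass-fiber filter by scintillation.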

GSK3B (h) = GSK3B (h) (Homo sapiens, UniProt P49841); assay: GSK3β human kinase assay (glass-fiber filter); settings: test concentration of 10^−6M; for inhibition at 1 µM: read-out: C8 score (inhibition of GSK3β human)
Procedure, shortened: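 Human GSK3β (5-10 mU) with 20 μM phospho GS2 peptide, [γ-^33P]ATP, 8 mM MOPS pH 7.0, 10 mM Mg acetate; 40 min at room temperature. Stopped with phosphoric acid; substrate phosphorylation read as filter-bound radioactivity by scintillation counting.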

Yes (h), sequence (P07947 whole entry): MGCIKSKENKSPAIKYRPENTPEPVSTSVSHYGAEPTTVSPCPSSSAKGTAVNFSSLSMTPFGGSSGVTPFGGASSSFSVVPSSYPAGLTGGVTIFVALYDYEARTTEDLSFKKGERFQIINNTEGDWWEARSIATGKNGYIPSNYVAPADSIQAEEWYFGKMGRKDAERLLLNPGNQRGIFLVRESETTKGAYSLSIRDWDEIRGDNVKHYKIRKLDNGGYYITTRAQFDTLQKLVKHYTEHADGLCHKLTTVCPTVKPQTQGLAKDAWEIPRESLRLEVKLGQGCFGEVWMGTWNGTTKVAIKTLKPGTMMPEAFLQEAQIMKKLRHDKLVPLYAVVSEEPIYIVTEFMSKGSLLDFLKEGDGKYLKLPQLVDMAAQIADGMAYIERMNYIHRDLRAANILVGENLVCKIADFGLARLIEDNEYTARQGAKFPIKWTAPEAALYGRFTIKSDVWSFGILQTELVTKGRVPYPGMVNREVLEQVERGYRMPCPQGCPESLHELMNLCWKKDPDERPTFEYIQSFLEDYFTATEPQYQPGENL
GSK3B (h), sequence (P49841 whole entry): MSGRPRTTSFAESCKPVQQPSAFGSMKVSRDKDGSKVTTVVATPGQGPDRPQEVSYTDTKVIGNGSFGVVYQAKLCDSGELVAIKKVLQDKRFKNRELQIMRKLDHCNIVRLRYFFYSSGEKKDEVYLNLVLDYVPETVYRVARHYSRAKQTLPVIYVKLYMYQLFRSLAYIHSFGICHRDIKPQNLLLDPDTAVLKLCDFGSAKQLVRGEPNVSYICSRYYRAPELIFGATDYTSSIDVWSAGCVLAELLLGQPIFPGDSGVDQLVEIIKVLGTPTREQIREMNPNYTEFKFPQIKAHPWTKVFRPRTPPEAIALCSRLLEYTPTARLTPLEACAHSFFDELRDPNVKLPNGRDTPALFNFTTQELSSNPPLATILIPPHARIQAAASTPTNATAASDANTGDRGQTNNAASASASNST
Lyn (h), sequence (P07948 whole entry): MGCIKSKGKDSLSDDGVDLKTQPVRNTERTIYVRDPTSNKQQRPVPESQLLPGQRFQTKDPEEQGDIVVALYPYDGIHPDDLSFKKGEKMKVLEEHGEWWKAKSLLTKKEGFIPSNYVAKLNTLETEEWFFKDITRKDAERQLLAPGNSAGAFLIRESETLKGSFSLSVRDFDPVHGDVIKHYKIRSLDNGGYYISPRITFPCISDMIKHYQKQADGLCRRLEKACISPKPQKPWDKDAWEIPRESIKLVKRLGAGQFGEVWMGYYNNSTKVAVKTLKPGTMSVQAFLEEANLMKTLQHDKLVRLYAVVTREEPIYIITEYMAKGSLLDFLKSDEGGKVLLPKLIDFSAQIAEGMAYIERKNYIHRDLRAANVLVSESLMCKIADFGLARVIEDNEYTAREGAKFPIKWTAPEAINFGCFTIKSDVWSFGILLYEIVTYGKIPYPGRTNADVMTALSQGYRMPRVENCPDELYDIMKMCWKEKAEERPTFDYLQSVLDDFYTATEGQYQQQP

| Compound | inhibition at 1 µM (Lyn (h)) | inhibition at 1 µM (cSRC (h)) | inhibition at 1 µM (Yes (h)) | inhibition at 1 µM (GSK3B (h)) | C10 score (inhibition of Lyn human) (Lyn (h)) | C3 score (inhibition of cSRC human) (cSRC (h)) | C11 score (inhibition of Yes human) (Yes (h)) | C8 score (inhibition of GSK3β human) (GSK3B (h)) |
| --- | --- | --- | --- | --- | --- | --- | --- | --- |
| 1H,7H-2,6: 12,8-dimetheno-14H-13,19,1,3,5,7-benzodioxatetraazacycloheneicosine, 22-bromo-15,16,17,18-tetrahydro-11-methoxy- [Compound 35] | – | – | – | – | 2 (Score 2=30-60% inhibition) | 1 (Score 1=10-30% inhibition) | 3 (Score 3=60-80% inhibition) | 1 (Score 1=10-30% inhibition) |
| 12,8-metheno-6,2-nitrilo-7H-13,1,5,7,16,19-benzoxapentaazacyclodocosine-3-carbonitrile, 23-chloro-1,14,15,16,17,18,19,20-octahydro-11-methoxy-19-methyl-17-oxo- [Compound 32] | – | – | – | – | 4 (Score 4=>80% inhibition) | 4 (Score 4=>80% inhibition) | 4 (Score 4=>80% inhibition) | 4 (Score 4=>80% inhibition) |
| N#Cc1cnc2nc1Nc1cccc(c1)OCC(=O)NCCCCOc1cccc(c1)N2 [Compound 26, 14,22-dioxa-2,4,8,17,29-pentaazatetracyclo[21.3.1.1~3,7~.1~9,13~]nonacosa-1(27),3,5,7(29),9,11,13(28),23,25-nonaene-6-carbonitrile, 16-oxo-] | 30 to 60% | 10 to 30% | 10 to 30% | 10 to 30% | – | – | – | – |
| COc1ccc2c(c1)OCCCCCCOc1ccc(Cl)cc1Nc1cc(ncn1)N2 [Compound 34, 11H-6,10-metheno-5H-dibenzo[b,k][1,13,4,6,8,10]dioxatetraazacyclononadecine, 13-chloro-17,18,19,20,21,22-hexahydro-2-methoxy-] | 10 to 30% | 10 to 30% | 10 to 30% | – | – | – | – | – |
| COc1ccc2cc1OCCCCCCOc1ccc(Br)cc1Nc1cc(ncn1)N2 [Compound 36, 1H,7H-2,6: 12,8-dimetheno-13,20,1,3,5,7-benzodioxatetraazacyclodocosine, 23-bromo-14,15,16,17,18,19-hexahydro-11-methoxy-] | – | – | – | – | 3 (Score 3=60-80% inhibition) | 1 (Score 1=10-30% inhibition) | 1 (Score 1=10-30% inhibition) | – |
| COc1ccc2cc1OCCCCCCCOc1ccc(Br)cc1Nc1cc(ncn1)N2 [Compound 37, 1H,7H-2,6: 12,8-dimetheno-14H-13,21,1,3,5,7-benzodioxatetraazacyclotricosine, 24-bromo-15,16,17,18,19,20-hexahydro-11-methoxy-] | – | – | – | – | 2 (Score 2=30-60% inhibition) | 1 (Score 1=10-30% inhibition) | 1 (Score 1=10-30% inhibition) | 1 (Score 1=10-30% inhibition) |

Further lines, with some results ahead:

| inhibition at 1 µM (Lyn (h)) | inhibition at 1 µM (cSRC (h)) | inhibition at 1 µM (Yes (h)) | inhibition at 1 µM (GSK3B (h)) | Compound | C10 score (inhibition of Lyn human) (Lyn (h)) | C3 score (inhibition of cSRC human) (cSRC (h)) | C11 score (inhibition of Yes human) (Yes (h)) | C8 score (inhibition of GSK3β human) (GSK3B (h)) |
| --- | --- | --- | --- | --- | --- | --- | --- | --- |
| 10 to 30% | 10 to 30% | 10 to 30% | 30 to 60% | N#Cc1cnc2nc1Nc1cccc(c1)OCC(=O)NCCCOc1cccc(c1)N2 [Compound 25, 14,21-dioxa-2,4,8,17,28-pentaazatetracyclo[20.3.1.1~3,7~.1~9,13~]octacosa-1(26),3,5,7(28),9,11,13(27),22,24-nonaene-6-carbonitrile, 16-oxo-] | – | – | – | – |
| 10 to 30% | 30 to 60% | 60 to 80% | 60 to 80% | N#Cc1cnc2nc1Nc1cccc(c1)OCCCNC(=O)COc1cccc(c1)N2 [Compound 28, 14,21-dioxa-2,4,8,18,28-pentaazatetracyclo[20.3.1.1~3,7~.1~9,13~]octacosa-1(26),3,5,7(28),9,11,13(27),22,24-nonaene-6-carbonitrile, 19-oxo-] | – | – | – | – |
| > 80% | > 80% | > 80% | 10 to 30% | COc1ccc2cc1OCCNC(=O)CNC(=O)Cc1ccc(Cl)cc1Nc1cc(ncn1)N2 [Compound 103, 1H,7H-6,2:12,8-dimetheno-13,1,3,5,7,16,19-benzoxahexaazacyclotricosine-17,20(14H)-dione, 24-chloro-15,16,18,19,21-pentahydro-11-methoxy-] | – | – | – | – |
| > 80% | > 80% | > 80% | 10 to 30% | COc1ccc2cc1OCCCNC(=O)C(C)(C)NC(=O)Cc1ccc(Cl)cc1Nc1cc(ncn1)N2 [Compound 105, 6,2:8,12-dimetheno-7H-13,1,3,5,7,17,20-benzoxahexaazacyclotetracosine-18,21-dione, 25-chloro-1,14,15,16,17,19,20,22-octahydro-11-methoxy-19,19-dimethyl-] | – | – | – | – |
| > 80% | > 80% | > 80% | 10 to 30% | CC1(C)NC(=O)Cc2ccc(Cl)cc2Nc2cc(ncn2)Nc2ccc(OCCCN3CCOCC3)c(c2)OCCNC1=O [Compound 106, 1H,7H-6,2:8,12-dimetheno-13,1,3,5,7,16,19-benzoxahexaazacyclotricosine-17,20(14H)-dione, 24-chloro-15,16,18,19,21-pentahydro-18,18-dimethyl-11-[3-(4-morpholinyl)propoxy]-] | – | – | – | – |
